According to US11771738B2 (Zoetis Services LLC, priority 2018, dated 2023):
Marks after values point to notes of the source that are not given here.

Each molecule was assayed on third stage larvae of Haemonchus contortus (assay: Haemonchus contortus, Larvae Stage 3 (HcL3) In Vitro Assay). Conditions: Haemonchus contortus third stage larvae in vitro; class mark appended to the Ex # in Table 3.
Type: cell-based
CC(C)C[C@H]1C(=O)O[C@H](Cc2ccc(Cc3cccnc3)cc2)C(=O)N(C)[C@@H](CC(C)C)C(=O)O[C@H](C)C(=O)N(C)[C@@H](CC(C)C)C(=O)O[C@H](Cc2ccc(Cc3cccnc3)cc2)C(=O)N(C)[C@@H](CC(C)C)C(=O)O[C@H](C)C(=O)N1C [Example 3-3] was tested, and the “HcL3 MED” value was 3-3^ (Examples with a carrot (^) have HcL3 MED values>1 and ≤3.3 μM). CC(C)C[C@H]1C(=O)O[C@H](Cc2ccc(Cc3nncs3)cc2)C(=O)N(C)[C@@H](CC(C)C)C(=O)O[C@H](C)C(=O)N(C)[C@@H](CC(C)C)C(=O)O[C@H](Cc2ccc(Cc3nncs3)cc2)C(=O)N(C)[C@@H](CC(C)C)C(=O)O[C@H](C)C(=O)N1C [Example 3-14] was tested, and the “HcL3 MED” value was 3-14* (Examples with an asterisk (*) have HcL3 MED values≤1 μM). CC(C)C[C@H]1C(=O)O[C@H](Cc2ccc(Cc3ccccn3)cc2)C(=O)N(C)[C@@H](CC(C)C)C(=O)O[C@H](C)C(=O)N(C)[C@@H](CC(C)C)C(=O)O[C@H](Cc2ccc(Cc3ccccn3)cc2)C(=O)N(C)[C@@H](CC(C)C)C(=O)O[C@H](C)C(=O)N1C [Example 3-27] was tested, and the “HcL3 MED” value was 3-27^ (Examples with a carrot (^) have HcL3 MED values>1 and ≤3.3 μM). In the case of CC(C)C[C@H]1C(=O)O[C@H](Cc2ccc(Cc3nc(-c4ccccc4)cs3)cc2)C(=O)N(C)[C@@H](CC(C)C)C(=O)O[C@H](C)C(=O)N(C)[C@@H](CC(C)C)C(=O)O[C@H](Cc2ccc(Cc3nc(-c4ccccc4)cs3)cc2)C(=O)N(C)[C@@H](CC(C)C)C(=O)O[C@H](C)C(=O)N1C [Example 3-36], the “HcL3 MED” value was 3-36* (Examples with an asterisk (*) have HcL3 MED values≤1 μM). In the case of CC(C)C[C@H]1C(=O)O[C@H](Cc2ccc(Cc3cscn3)cc2)C(=O)N(C)[C@@H](CC(C)C)C(=O)O[C@H](C)C(=O)N(C)[C@@H](CC(C)C)C(=O)O[C@H](Cc2ccc(Cc3cscn3)cc2)C(=O)N(C)[C@@H](CC(C)C)C(=O)O[C@H](C)C(=O)N1C [Example 3-45], the “HcL3 MED” value was 3-45* (Examples with an asterisk (*) have HcL3 MED values≤1 μM). For Cc1nc(C)c(Cc2ccc(C[C@H]3OC(=O)[C@H](CC(C)C)N(C)C(=O)[C@@H](C)OC(=O)[C@H](CC(C)C)N(C)C(=O)[C@@H](Cc4ccc(Cc5sc(C)nc5C)cc4)OC(=O)[C@H](CC(C)C)N(C)C(=O)[C@@H](C)OC(=O)[C@H](CC(C)C)N(C)C3=O)cc2)s1 [Example 3-52], the “HcL3 MED” value was 3-52* (Examples with an asterisk (*) have HcL3 MED values≤1 μM). For CC(C)C[C@H]1C(=O)O[C@H](Cc2ccc(Cc3ncccn3)cc2)C(=O)N(C)[C@@H](CC(C)C)C(=O)O[C@H](C)C(=O)N(C)[C@@H](CC(C)C)C(=O)O[C@H](Cc2ccc(Cc3ncccn3)cc2)C(=O)N(C)[C@@H](CC(C)C)C(=O)O[C@H](C)C(=O)N1C [Example 3-73], the “HcL3 MED” value was 3-73* (Examples with an asterisk (*) have HcL3 MED values≤1 μM). With Cc1nc(Cc2ccc(C[C@H]3OC(=O)[C@H](CC(C)C)N(C)C(=O)[C@@H](C)OC(=O)[C@H](CC(C)C)N(C)C(=O)[C@@H](Cc4ccc(Cc5csc(C)n5)cc4)OC(=O)[C@H](CC(C)C)N(C)C(=O)[C@@H](C)OC(=O)[C@H](CC(C)C)N(C)C3=O)cc2)cs1 [Example 3-76] the “HcL3 MED” value was 3-76^ (Examples with a carrot (^) have HcL3 MED values>1 and ≤3.3 μM). In the case of Cc1nc(Cc2ccc(C[C@H]3OC(=O)[C@H](CC(C)C)N(C)C(=O)[C@@H](C)OC(=O)[C@H](CC(C)C)N(C)C(=O)[C@@H](Cc4ccc(Cc5nc(C)oc5C)cc4)OC(=O)[C@H](CC(C)C)N(C)C(=O)[C@@H](C)OC(=O)[C@H](CC(C)C)N(C)C3=O)cc2)c(C)o1 [Example 3-81], the “HcL3 MED” value was 3-81^ (Examples with a carrot (^) have HcL3 MED values>1 and ≤3.3 μM). For COc1cc(Cc2ccc(C[C@H]3OC(=O)[C@H](CC(C)C)N(C)C(=O)[C@@H](C)OC(=O)[C@H](CC(C)C)N(C)C(=O)[C@@H](Cc4ccc(Cc5cnc(OC)c(OC)c5)cc4)OC(=O)[C@H](CC(C)C)N(C)C(=O)[C@@H](C)OC(=O)[C@H](CC(C)C)N(C)C3=O)cc2)cnc1OC [Example 3-115], the “HcL3 MED” value was 3-115^ (Examples with a carrot (^) have HcL3 MED values>1 and ≤3.3 μM). With CC(C)C[C@H]1C(=O)O[C@H](Cc2ccc(Cc3cnn(C(F)F)c3)cc2)C(=O)N(C)[C@@H](CC(C)C)C(=O)O[C@H](C)C(=O)N(C)[C@@H](CC(C)C)C(=O)O[C@H](Cc2ccc(Cc3cnn(C(F)F)c3)cc2)C(=O)N(C)[C@@H](CC(C)C)C(=O)O[C@H](C)C(=O)N1C [Example 3-119] the “HcL3 MED” value was 3-119* (Examples with an asterisk (*) have HcL3 MED values≤1 μM). With Cc1nnsc1C(O)c1ccc(C[C@H]2OC(=O)[C@H](CC(C)C)N(C)C(=O)[C@@H](C)OC(=O)[C@H](CC(C)C)N(C)C(=O)[C@@H](Cc3ccc(C(O)c4snnc4C)cc3)OC(=O)[C@H](CC(C)C)N(C)C(=O)[C@@H](C)OC(=O)[C@H](CC(C)C)N(C)C2=O)cc1 (stereo partly shown) [Example 3-126] the “HcL3 MED” value was 3-126* (Examples with an asterisk (*) have HcL3 MED values≤1 μM). With COc1cc(Cc2ccc(C[C@H]3OC(=O)[C@H](CC(C)C)N(C)C(=O)[C@@H](C)OC(=O)[C@H](CC(C)C)N(C)C(=O)[C@@H](Cc4ccc(Cc5ccnc(OC)c5)cc4)OC(=O)[C@H](CC(C)C)N(C)C(=O)[C@@H](C)OC(=O)[C@H](CC(C)C)N(C)C3=O)cc2)ccn1 [Example 3-192] the “HcL3 MED” value was 3-192^ (Examples with a carrot (^) have HcL3 MED values>1 and ≤3.3 μM). CC(C)C[C@H]1C(=O)O[C@H](Cc2ccc(Cc3ccnn3CC(C)C)cc2)C(=O)N(C)[C@@H](CC(C)C)C(=O)O[C@H](C)C(=O)N(C)[C@@H](CC(C)C)C(=O)O[C@H](Cc2ccc(Cc3ccnn3CC(C)C)cc2)C(=O)N(C)[C@@H](CC(C)C)C(=O)O[C@H](C)C(=O)N1C [Example 3-211] was tested, and the “HcL3 MED” value was 3-211^ (Examples with a carrot (^) have HcL3 MED values>1 and ≤3.3 μM). In the case of Cc1ncc(Cc2ccc(C[C@H]3OC(=O)[C@H](CC(C)C)N(C)C(=O)[C@@H](C)OC(=O)[C@H](CC(C)C)N(C)C(=O)[C@@H](Cc4ccc(Cc5cnc(C)o5)cc4)OC(=O)[C@H](CC(C)C)N(C)C(=O)[C@@H](C)OC(=O)[C@H](CC(C)C)N(C)C3=O)cc2)o1 [Example 3-298], the “HcL3 MED” value was 3-298^ (Examples with a carrot (^) have HcL3 MED values>1 and ≤3.3 μM). With CC(C)C[C@H]1C(=O)O[C@H](Cc2ccc(Cc3cc[nH]n3)cc2)C(=O)N(C)[C@@H](CC(C)C)C(=O)O[C@H](C)C(=O)N(C)[C@@H](CC(C)C)C(=O)O[C@H](Cc2ccc(Cc3cc[nH]n3)cc2)C(=O)N(C)[C@@H](CC(C)C)C(=O)O[C@H](C)C(=O)N1C [Example 3-301] the “HcL3 MED” value was 3-301^ (Examples with a carrot (^) have HcL3 MED values>1 and ≤3.3 μM). CCCn1nccc1Cc1ccc(C[C@H]2OC(=O)[C@H](CC(C)C)N(C)C(=O)[C@@H](C)OC(=O)[C@H](CC(C)C)N(C)C(=O)[C@@H](Cc3ccc(Cc4ccnn4CCC)cc3)OC(=O)[C@H](CC(C)C)N(C)C(=O)[C@@H](C)OC(=O)[C@H](CC(C)C)N(C)C2=O)cc1 [Example 3-303] was tested, and the “HcL3 MED” value was 3-303* (Examples with an asterisk (*) have HcL3 MED values≤1 μM). With CC(C)C[C@H]1C(=O)O[C@H](Cc2ccc(Cc3ccnn3C(C)C)cc2)C(=O)N(C)[C@@H](CC(C)C)C(=O)O[C@H](C)C(=O)N(C)[C@@H](CC(C)C)C(=O)O[C@H](Cc2ccc(Cc3ccnn3C(C)C)cc2)C(=O)N(C)[C@@H](CC(C)C)C(=O)O[C@H](C)C(=O)N1C [Example 3-305] the “HcL3 MED” value was 3-305* (Examples with an asterisk (*) have HcL3 MED values≤1 μM). In the case of CC(C)C[C@H]1C(=O)O[C@H](Cc2ccc(Cc3cnccc3C3CC3)cc2)C(=O)N(C)[C@@H](CC(C)C)C(=O)O[C@H](C)C(=O)N(C)[C@@H](CC(C)C)C(=O)O[C@H](Cc2ccc(Cc3cnccc3C3CC3)cc2)C(=O)N(C)[C@@H](CC(C)C)C(=O)O[C@H](C)C(=O)N1C [Example 3-306], the “HcL3 MED” value was 3-306* (Examples with an asterisk (*) have HcL3 MED values≤1 μM).

Same assay, conditions: approximately 96 hours incubation; multiple-resistant field isolate
In the case of COc1cc(F)ccc1Cc1ccc(C[C@H]2OC(=O)[C@H](CC(C)C)N(C)C(=O)[C@@H](C)OC(=O)[C@H](CC(C)C)N(C)C(=O)[C@@H](Cc3ccccc3)OC(=O)[C@H](CC(C)C)N(C)C(=O)[C@@H](C)OC(=O)[C@H](CC(C)C)N(C)C2=O)cc1 [Example 2-9], the “HcL3 MED (symbol after Ex#)” value was 2-9* (Examples with an asterisk (*) have HcL3 MED values≤1 μM). With COc1ccccc1Cc1ccc(C[C@H]2OC(=O)[C@H](CC(C)C)N(C)C(=O)[C@@H](C)OC(=O)[C@H](CC(C)C)N(C)C(=O)[C@@H](Cc3ccccc3)OC(=O)[C@H](CC(C)C)N(C)C(=O)[C@@H](C)OC(=O)[C@H](CC(C)C)N(C)C2=O)cc1 [Example 2-12] the “HcL3 MED (symbol after Ex#)” value was 2-12^ (Examples with a carrot (^) have HcL3 MED values>1 and ≤3.3 μM). In the case of Cc1nn(C)cc1Cc1ccc(C[C@H]2OC(=O)[C@H](CC(C)C)N(C)C(=O)[C@@H](C)OC(=O)[C@H](CC(C)C)N(C)C(=O)[C@@H](Cc3ccccc3)OC(=O)[C@H](CC(C)C)N(C)C(=O)[C@@H](C)OC(=O)[C@H](CC(C)C)N(C)C2=O)cc1 [Example 4-3], the “HcL3 MED (symbol after Ex#)” value was 4-3^ (Examples with a carrot (^) have HcL3 MED values>1 and ≤3.3 μM). With CC(C)C[C@H]1C(=O)O[C@H](Cc2ccc(Cc3cccs3)cc2)C(=O)N(C)[C@@H](CC(C)C)C(=O)O[C@H](C)C(=O)N(C)[C@@H](CC(C)C)C(=O)O[C@H](Cc2ccccc2)C(=O)N(C)[C@@H](CC(C)C)C(=O)O[C@H](C)C(=O)N1C [Example 4-5] the “HcL3 MED (symbol after Ex#)” value was 4-5^ (Examples with a carrot (^) have HcL3 MED values>1 and ≤3.3 μM). In the case of COc1ncccc1Cc1ccc(C[C@H]2OC(=O)[C@H](CC(C)C)N(C)C(=O)[C@@H](C)OC(=O)[C@H](CC(C)C)N(C)C(=O)[C@@H](Cc3ccccc3)OC(=O)[C@H](CC(C)C)N(C)C(=O)[C@@H](C)OC(=O)[C@H](CC(C)C)N(C)C2=O)cc1 [Example 4-22], the “HcL3 MED (symbol after Ex#)” value was 4-22^ (Examples with a carrot (^) have HcL3 MED values>1 and ≤3.3 μM). CC(C)C[C@H]1C(=O)O[C@H](Cc2ccc(Cc3nccs3)cc2)C(=O)N(C)[C@@H](CC(C)C)C(=O)O[C@H](C)C(=O)N(C)[C@@H](CC(C)C)C(=O)O[C@H](Cc2ccccc2)C(=O)N(C)[C@@H](CC(C)C)C(=O)O[C@H](C)C(=O)N1C [Example 4-31] was tested, and the “HcL3 MED (symbol after Ex#)” value was 4-31* (Examples with an asterisk (*) have HcL3 MED values≤1 μM).
